Active and inactive are the calls of the source. The calls are words filed in the database; no cut-off is given here.
Tests used:
Type in all cases: functional, organism-based
Agrostis stolonifera [1] = assay: Phytotoxic activity against Agrostis stolonifera var. Penncross seedlings assessed as growth inhibition at 0.03 mM
Agrostis stolonifera [2] = assay: Phytotoxic activity against Agrostis stolonifera var. Penncross seedlings assessed as growth inhibition at 0.01 mM
Lactuca sativa [3] = assay: Phytotoxic activity against Lactuca sativa cv. Iceberg A (lettuce) seedlings assessed as growth inhibition at 0.03 mM
Lactuca sativa [4] = assay: Phytotoxic activity against Lactuca sativa cv. Iceberg A (lettuce) seedlings assessed as growth inhibition at 0.01 mM
Agrostis stolonifera [5] = assay: Phytotoxic activity against Agrostis stolonifera var. Penncross seedlings assessed as growth inhibition at 0.1 mM
Lactuca sativa [6] = assay: Phytotoxic activity against Lactuca sativa cv. Iceberg A (lettuce) seedlings assessed as growth inhibition at 0.1 mM
Lactuca sativa [7] = assay: Phytotoxic activity against Lactuca sativa cv. Iceberg A (lettuce) seedlings assessed as growth inhibition at 0.3 mM
Agrostis stolonifera [8] = assay: Phytotoxic activity against Agrostis stolonifera var. Penncross seedlings assessed as growth inhibition at 0.3 mM
Lactuca sativa [9] = assay: Phytotoxic activity against Lactuca sativa cv. Iceberg A (lettuce) seedlings assessed as growth inhibition at 1 mM
Agrostis stolonifera [10] = assay: Phytotoxic activity against Agrostis stolonifera var. Penncross seedlings assessed as growth inhibition at 1 mM

Structure (SMILES) | growth inhibition (GI) (Agrostis stolonifera [1]) | growth inhibition (GI) (Agrostis stolonifera [2]) | growth inhibition (GI) (Lactuca sativa [3]) | growth inhibition (GI) (Lactuca sativa [4]) | growth inhibition (GI) (Agrostis stolonifera [5]) | growth inhibition (GI) (Lactuca sativa [6]) | growth inhibition (GI) (Lactuca sativa [7]) | growth inhibition (GI) (Agrostis stolonifera [8]) | growth inhibition (GI) (Lactuca sativa [9]) | growth inhibition (GI) (Agrostis stolonifera [10])
CCCCCCCCCCC1=C(OC)C(=O)C=C(OC)C1=O | inactive | inactive | inactive | inactive | inactive | inactive | inactive | inactive | – | –
CCCCCC1=C(O)C(=O)C=C(OC)C1=O | inactive | inactive | inactive | inactive | – | inactive | – | – | Active | –
CCCCCCCCCCCCCCC1=C(O)C(=O)C=C(OC)C1=O | inactive | inactive | inactive | inactive | inactive | inactive | – | inactive | – | inactive
C=CC/C=C\C/C=C\CCCCCCCC1=C(O)C(=O)C=C(OC)C1=O | inactive | inactive | inactive | inactive | inactive | – | – | inactive | – | inactive
CCCCCC1=C(OC)C(=O)C=C(OC)C1=O | inactive | inactive | inactive | inactive | – | inactive | – | – | – | –

Source: ChEMBL document CHEMBL3044838, “Phytotoxic activity of quinones and resorcinolic lipid derivatives” (J Agric Food Chem, 2010)
